Experimental data: patent US20240317744A1, “Bicyclic Ureas As Kinase Inhibitors” (Incyte Corporation, priority 2023, published 2024)

Legend:
[1] = target: catalytic domain (JH1, amino acids 808-1132) of human JAK2 (Homo sapiens, UniProt O60674); test: JAK2 HTRF Enzyme Activity Assay; type: biochemical; conditions: ATP 30 µM, 60 minutes at 25° C.; read-out: V617F ENZ 30 UM
[2] = target: T1, pseudo-kinase domain (JH2, amino-acids 536-812) of human Wild Type JAK2 (Homo sapiens, UniProt O60674, F794H/W659A/W777A); test: JAK2 LanthaScreen JH2-WT Binding Assay; conditions: JAK2 JH2-WT 0.145 nM, 50 nM tracer, 1 hour at 25° C.; read-out: JH2 BIND WT
T1 construct: pseudo-kinase domain (JH2, amino-acids 536-812 with 3 surface mutations W659A, W777A, F794H); His (C); purchased BPS Bioscience 79463; host or cells: baculovirus expression system
Description: Example B. JAK2 LanthaScreen JH2-WT Binding Assay
JAK2 JH2-WT binding assay utilizes pseudo-kinase domain (JH2, amino-acids 536-812 with 3 surface mutations W659A, W777A, F794H) of human Wild Type JAK2 expressed as C-terminal His-Avi-tagged, biotinylated protein in a baculovirus expression system (BPS Bioscience, Catalog #79463). The assay was conducted in black 384-well polystyrene plates in a final reaction volume of 20 μL. JAK2 JH2-WT (0.145 nM) was incubated with compounds (100 nL serially diluted in DMSO) in the presence of 50 nM Fluorescent JAK2-JH2 Tracer (MedChem Express Catalog #HY-102055) and 0.25 nM Streptavidin-Tb cryptate (Cisbio Part #610SATLB) in assay buffer (50 mM Tris, pH=7.5, 10 mM MgCl2, 0.01% Brij-35, 0.1% BSA, 1 mM EGTA, 5% Glycerol and 5 mM DTT). Non-specific binding was accessed in the presence of 2 mM ATP. After incubation for 1 hour at 25° C., LanthaScreen signals were read on a PHERAstar FS plate reader (BMG LABTECH). Data was analyzed with IDBS XLfit and GraphPad Prism 5.0 software using a four parameter dose response curve to determine IC50 for each compound.

[3] = target: T2, catalytic domain (JH1, amino acids 826-1132) of human JAK2 (Homo sapiens, UniProt O60674); test: JAK2 LanthaScreen JH1 Binding Assay; conditions: JAK2 JH1 1.5 nM, 50 nM tracer, 2 hours at 25° C.; read-out: JH1 BIND
T2 construct: catalytic domain (JH1, amino acids 826-1132) of human JAK2; FLAG (N); biotin (biotinylated); purchased Carna Biosciences 08-445-20N; host or cells: baculovirus expression system
Description: Example A. JAK2 LanthaScreen JH1 Binding Assay
JAK2 JH1 binding assay utilizes catalytic domain (JH1, amino acids 826-1132) of human JAK2 expressed as N-terminal FLAG-tagged, biotinylated protein in a baculovirus expression system (Carna Biosciences, Product #08-445-20N). The assay was conducted in black 384-well polystyrene plates in a final reaction volume of 20 μL. JAK2 JH1 (1.5 nM) was incubated with compounds (100 nL serially diluted in DMSO) in the presence of 50 nM fluorescent JAK2-JH1 tracer and 0.5 nM Streptavidin-Tb cryptate (Cisbio Part #610SATLB) in assay buffer (50 mM Tris, pH=7.5, 10 mM MgCl2, 0.01% Brij-35, 0.1% BSA, 1 mM EGTA, 5% Glycerol and 5 mM DTT). Non-specific binding was accessed in the presence of 2 mM ATP. After incubation for 2 hours at 25° C., LanthaScreen signals were read on a PHERAstar FS plate reader (BMG LABTECH). Data was analyzed with IDBS XLfit and GraphPad Prism 5.0 software using a four parameter dose response curve to determine IC50 for each compound.

[4] = target: T3, pseudo-kinase domain (JH2, amino-acids 536-812) of human V617F mutant JAK2 (Homo sapiens, UniProt O60674, F794H/V617F/W659A/W777A); test: JAK2 LanthaScreen JH2-V617F Binding Assay; conditions: JAK2 JH2-V617F 0.26 nM, 50 nM tracer, 1 hour at 25° C.; read-out: JH2 BIND V617F
T3 construct: pseudo-kinase domain (JH2, amino-acids 536-812 with 3 surface mutations W659A, W777A, F794H); His (C); purchased BPS Bioscience 79498; host or cells: baculovirus expression system
How it was run: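 IC50 values came from four-parameter dose-response fits of LanthaScreen signal, read after compounds sat 1 hour at 25° C with 0.26 nM baculovirus-expressed biotinylated protein, 50 nM fluorescent tracer and 0.25 nM streptavidin-Tb cryptate. Non-specific binding was set with 2 mM ATP.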

T2 sequence (O60674 826-1132): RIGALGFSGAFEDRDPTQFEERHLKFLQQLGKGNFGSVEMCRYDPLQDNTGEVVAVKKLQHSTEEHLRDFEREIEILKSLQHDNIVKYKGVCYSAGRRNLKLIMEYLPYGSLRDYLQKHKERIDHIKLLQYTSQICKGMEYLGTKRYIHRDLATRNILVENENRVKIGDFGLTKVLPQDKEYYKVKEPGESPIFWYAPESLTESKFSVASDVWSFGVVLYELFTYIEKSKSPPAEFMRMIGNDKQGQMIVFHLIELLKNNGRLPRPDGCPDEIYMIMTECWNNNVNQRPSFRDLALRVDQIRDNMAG
catalytic domain (JH1, amino acids 808-1132) of human JAK2, sequence (O60674 808-1132 limits assumed): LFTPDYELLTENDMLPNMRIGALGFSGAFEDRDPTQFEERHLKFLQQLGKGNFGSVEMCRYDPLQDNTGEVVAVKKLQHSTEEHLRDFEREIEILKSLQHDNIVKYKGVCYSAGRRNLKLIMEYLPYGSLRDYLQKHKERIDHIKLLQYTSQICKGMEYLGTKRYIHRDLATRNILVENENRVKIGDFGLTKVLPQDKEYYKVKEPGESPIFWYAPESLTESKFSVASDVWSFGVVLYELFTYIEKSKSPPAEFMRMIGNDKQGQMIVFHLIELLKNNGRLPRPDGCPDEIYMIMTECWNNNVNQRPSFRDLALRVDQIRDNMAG
T1 sequence (O60674 536-812 W659A/W777A/F794H): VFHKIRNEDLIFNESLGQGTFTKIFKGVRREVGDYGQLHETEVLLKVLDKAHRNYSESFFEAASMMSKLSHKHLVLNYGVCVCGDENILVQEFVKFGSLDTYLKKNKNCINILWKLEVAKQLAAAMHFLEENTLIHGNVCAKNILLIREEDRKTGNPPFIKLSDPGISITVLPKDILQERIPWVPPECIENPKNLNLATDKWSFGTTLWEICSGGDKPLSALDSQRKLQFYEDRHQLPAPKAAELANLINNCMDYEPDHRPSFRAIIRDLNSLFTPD
T3 sequence (O60674 536-812 V617F/W659A/W777A/F794H): as the sequence (O60674 536-812 W659A/W777A/F794H) above, with V82F counted along it

Structure (SMILES)	IC50 [1] [nM]	IC50 [2] [nM]	IC50 [3] [nM]	IC50 [4] [nM]
[2H]C([2H])([2H])n1c(=O)n([C@@H]2CC[C@@H](NC(=O)OC)C2)c2cc(Nc3cc(C(C)(C)O)c4nc(C)n(-c5cnn(C(F)F)c5)c4n3)ncc21 [Example 115, Methyl ((1R,3R)-3-(6-((3-(1-(difluoromethyl)-1H-pyrazol-4-yl)-7-(2-hydroxypropan-2-yl)-2-methyl-3H-imidazo[4,5-b]pyridin-5-yl)amino)-3-(methyl-d3)-2-oxo-2,3-dihydro-1H-imidazo[4,5-c]pyridin-1-yl)cyclopentyl)carbamate]	> 1000	≤ 10	> 1000	≤ 10
CCOC(=O)N[C@@H]1CC[C@@H](n2c(=O)n(C)c3cnc(Nc4cc(NC(=O)OC5CCC5)cc(-c5cnn(C)c5)c4)cc32)C1 [Example 46, Ethyl ((1R,3R)-3-(6-((3-((cyclobutoxycarbonyl)amino)-5-(1-methyl-1H-pyrazol-4-yl)phenyl)amino)-3-methyl-2-oxo-2,3-dihydro-1H-imidazo[4,5-c]pyridin-1-yl)cyclopentyl)carbamate]	> 1000	10 to 100	> 1000	10 to 100
COC(=O)N[C@@H]1CC[C@@H](n2c(=O)n(C)c3cnc(Nc4ccnc(N5CCC(F)(F)C5)n4)cc32)C1 [Example 78, Methyl ((1R,3R)-3-(6-((2-(3,3-difluoropyrrolidin-1-yl)pyrimidin-4-yl)amino)-3-methyl-2-oxo-2,3-dihydro-1H-imidazo[4,5-c]pyridin-1-yl)cyclopentyl)carbamate]	> 1000	≤ 10	> 1000	≤ 10
Cn1cc(-c2cc(NC(=O)OC3CCC3)cc(Nc3cc4c(cn3)n(C)c(=O)n4C3CCCC3)c2)cn1 [Example 60, Cyclobutyl (3-((1-cyclopentyl-3-methyl-2-oxo-2,3-dihydro-1H-imidazo[4,5-c]pyridin-6-yl)amino)-5-(1-methyl-1H-pyrazol-4-yl)phenyl)carbamate]	> 1000	10 to 100	> 1000	10 to 100
COC(=O)N[C@@H]1CC[C@@H](n2c(=O)n(C)c3cnc(Nc4ccnc(NC5CCOCC5)n4)cc32)C1 [Example 85, Methyl ((1R,3R)-3-(3-methyl-2-oxo-6-((2-((tetrahydro-2H-pyran-4-yl)amino)pyrimidin-4-yl)amino)-2,3-dihydro-1H-imidazo[4,5-c]pyridin-1-yl)cyclopentyl)carbamate]	> 1000	10 to 100	> 1000	10 to 100
COC(=O)Nc1cc(Nc2cc3c(cn2)n(C)c(=O)n3[C@@H]2CCC(F)(F)C2)cc(-c2cnn(C)c2)c1 [Example 30, Methyl (R)-(3-((1-(3,3-difluorocyclopentyl)-3-methyl-2-oxo-2,3-dihydro-1H-imidazo[4,5-c]pyridin-6-yl)amino)-5-(1-methyl-1H-pyrazol-4-yl)phenyl)carbamate]	> 1000	10 to 100	> 1000	100 to 500
[2H]C([2H])([2H])n1c(=O)n([C@@H]2CC[C@@H](NC(=O)OC)C2)c2cc(Nc3cc(C(C)(C)O)cc(-c4cnc(C(F)(F)F)s4)n3)ncc21 [Example 95, Methyl ((1R,3R)-3-(6-((4-(2-hydroxypropan-2-yl)-6-(2-(trifluoromethyl)thiazol-5-yl)pyridin-2-yl)amino)-3-(methyl-d3)-2-oxo-2,3-dihydro-1H-imidazo[4,5-c]pyridin-1-yl)cyclopentyl)carbamate]	> 1000	≤ 10	> 1000	≤ 10
COC(=O)N[C@@H]1CC[C@@H](n2c(=O)n(C)c3cnc(Nc4ccn5ncc(-c6cnn(C)c6)c5n4)cc32)C1 [Example 36, Methyl ((1R,3R)-3-(3-methyl-6-((3-(1-methyl-1H-pyrazol-4-yl)pyrazolo[1,5-a]pyrimidin-5-yl)amino)-2-oxo-2,3-dihydro-1H-imidazo[4,5-c]pyridin-1-yl)cyclopentyl)carbamate]	> 1000	≤ 10	> 1000	10 to 100
[2H]C([2H])([2H])n1c(=O)n([C@@H]2CC[C@@H](NC(=O)OC)C2)c2cc(Nc3cc(C)cc(-c4ncc(C(C)(C)O)s4)n3)ncc21 [Example 99, Methyl ((1R,3R)-3-(6-((6-(5-(2-hydroxypropan-2-yl)thiazol-2-yl)-4-methylpyridin-2-yl)amino)-3-(methyl-d3)-2-oxo-2,3-dihydro-1H-imidazo[4,5-c]pyridin-1-yl)cyclopentyl)carbamate]	> 1000	≤ 10	> 1000	≤ 10
COC(=O)Nc1cc(Nc2cc3c(cn2)n(C)c(=O)n3C2CC3(C2)CN(C(=O)OC)C3)cc(-c2cnn(C)c2)c1 [Example 27, Methyl 6-(6-((3-((methoxycarbonyl)amino)-5-(1-methyl-1H-pyrazol-4-yl)phenyl)amino)-3-methyl-2-oxo-2,3-dihydro-1H-imidazo[4,5-c]pyridin-1-yl)-2-azaspiro[3.3]heptane-2-carboxylate]	> 1000	100 to 500	> 1000	100 to 500
COC(=O)N[C@@H]1CC[C@@H](n2c(=O)n(C)c3cnc(Nc4cccc(C(=O)N5CCCCC5)n4)cc32)C1 [Example 86, Methyl ((1R,3R)-3-(3-methyl-2-oxo-6-((6-(piperidine-1-carbonyl)pyridin-2-yl)amino)-2,3-dihydro-1H-imidazo[4,5-c]pyridin-1-yl)cyclopentyl)carbamate]	> 1000	10 to 100	> 1000	100 to 500
Cn1cc(-c2cc(NC(=O)OC3CCC3)cc(Nc3cc4c(cn3)n(C)c(=O)n4[C@@H]3CC[C@@H](NC(=O)OC4CCC4)C3)c2)cn1 [Example 45, Cyclobutyl ((1R,3R)-3-(6-((3-((cyclobutoxycarbonyl)amino)-5-(1-methyl-1H-pyrazol-4-yl)phenyl)amino)-3-methyl-2-oxo-2,3-dihydro-1H-imidazo[4,5-c]pyridin-1-yl)cyclopentyl)carbamate]	> 1000	10 to 100	> 1000	10 to 100
COC(=O)N[C@@H]1CC[C@@H](n2c(=O)n(C)c3cnc(Nc4cccc(-c5ccc6ncccc6c5)n4)cc32)C1 [Example 9, Methyl ((1R,3R)-3-(3-methyl-2-oxo-6-((6-(quinolin-6-yl)pyridin-2-yl)amino)-2,3-dihydro-1H-imidazo[4,5-c]pyridin-1-yl)cyclopentyl)carbamate]	> 1000	≤ 10	> 1000	≤ 10
COC(=O)N[C@@H]1CC[C@@H](n2c(=O)n(C)c3cnc(Nc4ccnc(N5CCCCC5)n4)cc32)C1 [Example 66, Methyl ((1R,3R)-3-(3-methyl-2-oxo-6-((2-(piperidin-1-yl)pyrimidin-4-yl)amino)-2,3-dihydro-1H-imidazo[4,5-c]pyridin-1-yl)cyclopentyl)carbamate]	> 1000	≤ 10	> 1000	10 to 100
